Laboratory results from article PMC8408562, “Spatially restricted substrate-binding site of cortisol-synthesizing CYP11B1 limits multiple hydroxylations and hinders aldosterone synthesis” (Current Research in Structural Biology, 2021).
Where a chain is given by its changes, count along the chain named. pKd: −log10 of the molar value. Read-outs that look alike come from different tables or passages of the source.

How the values were obtained:
[1] = molecular target: T1, human CYP11B1 mutant (W49R, L50N, L53N, W56R, L244N, W247N) (Homo sapiens, UniProt P15538, L244N/L50N/L53N/W247N/W49R/W56R); assay: Steady-state kinetics in reconstituted system (adrenodoxin reductase, adrenodoxin, NADPH), LC-MS/MS, mutant; format: biochemical; settings: for Production of 18-hydroxy cortisol / 18-hydroxy corticosterone (11β,18-dihydroxylation): from DOF and DOC, respectively
T1 sequence (P15538 28-503 W49R/L50N/L53N/W56R/L244N/W247N limits assumed): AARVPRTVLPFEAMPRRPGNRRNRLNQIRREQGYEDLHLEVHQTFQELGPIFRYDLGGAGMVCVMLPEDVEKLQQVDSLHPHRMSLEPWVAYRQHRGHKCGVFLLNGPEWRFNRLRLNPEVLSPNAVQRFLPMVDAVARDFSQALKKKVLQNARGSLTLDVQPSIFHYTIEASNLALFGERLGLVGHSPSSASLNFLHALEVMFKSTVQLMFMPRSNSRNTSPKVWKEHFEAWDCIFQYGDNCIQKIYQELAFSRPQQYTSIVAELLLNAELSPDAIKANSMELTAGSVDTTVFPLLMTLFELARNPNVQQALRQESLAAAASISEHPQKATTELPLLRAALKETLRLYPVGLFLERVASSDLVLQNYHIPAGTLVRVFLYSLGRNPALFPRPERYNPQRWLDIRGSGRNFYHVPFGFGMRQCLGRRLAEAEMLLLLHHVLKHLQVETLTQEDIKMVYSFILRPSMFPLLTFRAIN

[2] = system: CYP11B1 Wild type / CYP11B2 G288S; design: method as in ref [2, 3] (a number printed in a supplementary file, which may have a reference list of its own: not looked up in the article's list); settings: group (ii); steroids produced from DOC, estimated against wild type controls; ref [2, 3]; cited from earlier work
[3] = system: CYP11B1 S288G / CYP11B2 R181W/V386A; design: method as in ref [2, 3] (a number printed in a supplementary file, which may have a reference list of its own: not looked up in the article's list); settings: group (iii); steroids produced from DOC, estimated against wild type controls; ref [2, 3]; cited from earlier work
[4] = molecular target: T1, human CYP11B1 mutant (W49R, L50N, L53N, W56R, L244N, W247N); assay: Spectroscopic titration of ferric enzyme (difference spectra), mutant; settings: direct titration of ferric form, mean ± SE, n=3
Method: (§1) Affinities of the two enzymes for the substrates DOC or DOF and other ligands were determined by titration assays using the ferric forms.
Two forms, a wild type and a mutant, of recombinant human CYP11B1 were expressed as 486-amino acid residue polypeptide (Fig. S2).
Spectroscopic studies were carried out at room temperature using a Jasco UV–visible spectrophotometer V-530. Purified enzymes were diluted to 1.0 ​μM for the wild type and 0.8–1.2 ​μM for the mutant with the buffer consisting of 50 ​mM potassium phosphate (pH 7.4), 150 ​mM NaCl, 20% (v/v) glycerol, and 0.05% (v/v) Tween 20. Substrate DOC (Sigma) at 400 ​μM, sodium dithionite, and CO were added sequentially, and absolute spectra were recorded after each step. […] The data obtained with 5 ​mM Cymal-5 (Anatrace) in place of the substrate were also included in Fig. S4. Dissociation constants for steroids and ligands were determined from spectral changes caused by titration with increasing concentrations of them. Data were analyzed using non-linear regression (Prism 8, GraphPad Software) to calculate Kd values. […] The dissociation constants were calculated from the apparent values by using the Kd values for DOC as the inhibitory constants. […] The steroids and ligands used for spectroscopic analyses were dissolved in dimethyl sulfoxide.

CYP11B2 Wild type = system: CYP11B2 Wild type; design: method as in ref [1] (a number printed in a supplementary file, which may have a reference list of its own: not looked up in the article's list); settings: calculated from kcat values with substrate DOC, ref [1]; cited from earlier work
[5] = system: CYP11B1 S288G/V320A / CYP11B2 Wild type; design: method as in ref [2, 3] (a number printed in a supplementary file, which may have a reference list of its own: not looked up in the article's list); settings: group (iv); steroids produced from DOC, estimated against wild type controls; ref [2, 3]; cited from earlier work
human CYP11B1 wild type [6] = molecular target: T2, human CYP11B1 wild type (Homo sapiens, UniProt P15538); assay: Steady-state kinetics in reconstituted system (adrenodoxin reductase, adrenodoxin, NADPH), LC-MS/MS, wild type; format: biochemical
T2 sequence (P15538 28-503 limits assumed): T1 sequence (P15538 28-503 W49R/L50N/L53N/W56R/L244N/W247N limits assumed) with R22W, N23L, N26L, R29W, N217L, N220W

human CYP11B1 wild type [7] = molecular target: T2, human CYP11B1 wild type; assay: Spectroscopic titration of ferric enzyme (difference spectra), wild type; settings: for Spectral shift: one column for both wild type and mutant
Method: as §1
Spectroscopic studies were carried out at room temperature using a Jasco UV–visible spectrophotometer V-530. Purified enzymes were diluted to 1.0 ​μM for the wild type and 0.8–1.2 ​μM for the mutant with the buffer consisting of 50 ​mM potassium phosphate (pH 7.4), 150 ​mM NaCl, 20% (v/v) glycerol, and 0.05% (v/v) Tween 20. […] Dissociation constants for steroids and ligands were determined from spectral changes caused by titration with increasing concentrations of them. Data were analyzed using non-linear regression (Prism 8, GraphPad Software) to calculate Kd values. […] The dissociation constants were calculated from the apparent values by using the Kd values for DOC as the inhibitory constants. […] The steroids and ligands used for spectroscopic analyses were dissolved in dimethyl sulfoxide.

[8] = CYP11B1 mutant, calculated from kcat values with substrate DOC
[9] = CYP11B1 wild type (this study), calculated from kcat values with substrate DOC

## C[C@]12CC[C@H]3[C@@H](CCC4=CC(=O)CC[C@@]43C)[C@@H]1CC[C@@H]2C(=O)CO [DOC, 11-deoxycorticosterone]
[1]
  kcat, 11β,18-diOHase: 0 min⁻¹
  kcat, 11β,18-diOHase,18-oxidase: 0 min⁻¹
  kcat, 11β-hydroxylation: 132.7 min⁻¹
[1]; [8]
  Relative activity (molar product ratio), 11b,18-diOHase: 0%
  Relative activity (molar product ratio), 11b,18-diOHase,18-oxidase: 0%
  Relative activity (molar product ratio), 11b-OHase: 95.8%
  Relative activity (molar product ratio), 18-OHase: 4.2%
[1]; Mutant, from DOC
  Production of aldosterone: not produced
[1]; Mutant
  Production of 18-hydroxy cortisol / 18-hydroxy corticosterone (11β,18-dihydroxylation): did not produce
[2]
  Activity class, 11b,18-diOHase: + (Percentages 0, >0 and ≤1, >1 and ≤10, and >10 are indicated by (-), (+), (++), and (+++), respectively)
  Activity class, 11b,18-diOHase,18-oxidase: - (Percentages 0, >0 and ≤1, >1 and ≤10, and >10 are indicated by (-), (+), (++), and (+++), respectively)
  Activity class, 11b-OHase: +++ (Percentages 0, >0 and ≤1, >1 and ≤10, and >10 are indicated by (-), (+), (++), and (+++), respectively)
[3]
  Activity class, 11b,18-diOHase: ++ (Percentages 0, >0 and ≤1, >1 and ≤10, and >10 are indicated by (-), (+), (++), and (+++), respectively)
  Activity class, 11b,18-diOHase,18-oxidase: - (Percentages 0, >0 and ≤1, >1 and ≤10, and >10 are indicated by (-), (+), (++), and (+++), respectively)
  Activity class, 11b-OHase: +++ (Percentages 0, >0 and ≤1, >1 and ≤10, and >10 are indicated by (-), (+), (++), and (+++), respectively)
[4]
  pKd: 5.42
CYP11B2 Wild type
  Relative activity (molar product ratio), 11b,18-diOHase: 2.7%
  Relative activity (molar product ratio), 11b,18-diOHase,18-oxidase: 0.5%
  Relative activity (molar product ratio), 11b-OHase: 92.6%
  Relative activity (molar product ratio), 18-OHase: 4.2%
[5]
  Activity class, 11b,18-diOHase: ++ (Percentages 0, >0 and ≤1, >1 and ≤10, and >10 are indicated by (-), (+), (++), and (+++), respectively)
  Activity class, 11b,18-diOHase,18-oxidase: + (Percentages 0, >0 and ≤1, >1 and ≤10, and >10 are indicated by (-), (+), (++), and (+++), respectively)
  Activity class, 11b-OHase: +++ (Percentages 0, >0 and ≤1, >1 and ≤10, and >10 are indicated by (-), (+), (++), and (+++), respectively)
Human CYP11B1 wild type [6]
  kcat, 11β,18-diOHase,18-oxidase: 0 min⁻¹
  kcat, 11β,18-dihydroxylation: 0.65 min⁻¹
  kcat, 11β-hydroxylation: 161.0 min⁻¹
  kcat, 18-hydroxylation: 7.9 min⁻¹
Human CYP11B1 wild type [6]; [9]
  Relative activity (molar product ratio), 11b,18-diOHase: 0.4%
  Relative activity (molar product ratio), 11b,18-diOHase,18-oxidase: 0%
  Relative activity (molar product ratio), 11b-OHase: 94.9%
  Relative activity (molar product ratio), 18-OHase: 4.7%
Human CYP11B1 wild type [6]; Wild type, from DOC
  Production of aldosterone: not produced
Human CYP11B1 wild type [7]
  pKd: 4.82
  Spectral shift: Type I

## C[C@]12CCC(=O)C=C1CC[C@@H]1[C@@H]2CC[C@@]2(C)[C@H]1CC[C@]2(O)C(=O)CO [DOF, 11-deoxycortisol]
[1]; Mutant, DOF to cortisol, DOC to corticosterone
  kcat, 11β-hydroxylation: 90.6 min⁻¹
[1]; Mutant
  Production of 18-hydroxy cortisol / 18-hydroxy corticosterone (11β,18-dihydroxylation): did not produce
[1]; Mutant, product 18OH-F (from DOF) or 18OH-B (from DOC)
  kcat, 11β,18-diOHase: 0 min⁻¹
[4]
  pKd: 5.48
Human CYP11B1 wild type [6]; Wild type, DOF to cortisol, DOC to corticosterone
  kcat, 11β-hydroxylation: 129.4 min⁻¹
Human CYP11B1 wild type [7]
  pKd: 4.67
  Spectral shift: Type I
